# Reference: patent US12031170B2, “System for improved production titers in fermentations” (DANMARKS TEKNISKE UNIVERSITET, priority 2015, dated 2024)
# Experiments:
# Format in all cases: cell-based
# [1] = tested on: E. coli control strain e3.18CON; experiment: Toxicity of salicylic acid to non-addicted control strain, growth in microtiter plate; conditions: 2xYT, 5 mM salicylic acid, 37 deg. C.
# Description: Recombineering was performed as described in section 2.3 using well-described methods utilizing the pKD46 plasmid (Datsenko and Wanner, 2000). Instead of gene disruption, a specific set of knock-out DNA fragments was used to only replace the native essential folP-glmM operon promoter and folP RBS. This set of knockout DNA fragments contained a kanamycin resistance cassette and the pSAL promoter, as illustrated in the cartoon in FIG. 8, as well as a redundant nucleotide (“N”, wherein “N” is any of A, T , G or C) in the RBS for folP-glmM to generate a four-membered library of folP translational strengths. This library allows selection of a translational strength for folP that suits the transcriptional regulation by the biosensor. Finally, candidate recombineered cells were selected for by plating on LB agar plates supplemented with 5 mM salicylic acid and spectinomycin for maintenance of pBANspec; and kanamycin for selection of inserted knockout fragment. […]
# (§1) A selected addicted strain (e3.18#1) and the non-addicted control E. coli strain (e3.18CON) were then tested for salicylic acid dependent growth by cultivation in a microtiter plate reader in liquid 2xYT medium supplemented with spectinomycin and kanamycin and presence/absence of salicylic acid (0 or 5 mM). […]
# [2] = tested on: E. coli strain e3.18#1; experiment: Salicylic acid-dependent growth of addicted strain; conditions: 5 mM salicylic acid
# Source text: (§2) The native single genomic copy of the essential gene operon folP-glmM in the E. coli XL1 host strain was modified to allow its transcriptional control by the salicylic acid-responsive promoter pSAL [SEQ ID No:118]. First, a gene encoding a salicylic acid biosensor (Pseudomonas putida nahR_Asn169 (Cebolla et al., 1997)) was introduced into the XL1 host strain on the plasmid pBANspec (Table 10). Then, replacement of the native folP-glmM promoter by the pSAL promoter was engineered by means of lambda red-mediated recombineering.
# Recombineering was performed as described in section 2.3 using well-described methods utilizing the pKD46 plasmid (Datsenko and Wanner, 2000). Instead of gene disruption, a specific set of knock-out DNA fragments was used to only replace the native essential folP-glmM operon promoter and folP RBS. […]
# as §1
# [3] = tested on: E. coli XL-1 with pBAD-TA5; experiment: L-arabinose-addiction yefM-yoeB TA system, cell growth (OD600)
# Description: The yefM-yoeB TA pair was cloned into a plasmid (pBAD-TA5: araC, pBAD-yefM, pLac-yoeB, ampR) (Table 1) employing standard PCR cloning protocols (known in the art) and the plasmid was transformed into the host stain E. coli XL-1 with the genotype: recA1endA1 gyrA96 thi-1 hsdR17 supE44 relA1 lac[F′proAB lacIqZM15 Tn10 (TetR)]. Electroporation recovery of transformed cells was carried out in SOC medium (2% tryptone, 0.5% yeast extract, 10 mM NaCl, 2.5 mM KCl, 10 mM MgCl2, 10 mM MgSO4, and 20 mM glucose).
# Transformed E. coli cultures were grown in 2xYT medium (10 g/L yeast extract, 16 g/L tryptone, 5 g/L NaCl). Antibiotics were added to select for maintenance of plasmids in strains transformed with these, according to their respective antibiotic resistance gene. Antibiotic concentrations when added were as follows: ampicillin 100 μg/mL, chloramphenicol 30 μg/mL, spectinomycin 50 μg/mL, kanamycin 50 μg/mL.
# The expression of the yoeB gene in the yefM-yoeB TA pair construct (FIG. 2) was placed under the control of the Lac promoter, which is inducible by isopropyl β-D-1-thiogalactopyranoside (IPTG). Exposure of the cells to increasing concentrations of IPTG induced sufficient expression of the YoeB toxin to prevent growth, when the cells were grown in the absence of any source of L-arabinose (FIG. 3A). […]
# [4] = tested on: E. coli XL1 with pBAT-TA5; experiment: TPP-responsive riboswitch-regulated TA system, cell growth (OD600); conditions: presence of inducer TPP (500 μM added to the growth medium)
# Source text: A TPP-responsive riboswitch (ThiMN15 #19) was engineered into the previously constructed L-arabinose-responsive TA-based correction system (pBAD-TA5 to yield pBAT-TA5). This TPP riboswitch functions as an “ON-type” when in the presence of its ligand TPP, and it is functional at the level of translation. The riboswitch was inserted into the DNA region of the pBAD-TA5 gene construct that encodes the 5′ untranslated region (UTR) of the antitoxin mRNA sequence (FIG. 17). For optimal functionality of the riboswitch, a protein-encoding sequence tet was also added as N-terminal fusion to YefM as it originated from the screen where ThiMN15#19 had been identified. An alternative TPP-responsive riboswitch was constructed, where an “OFF-type” riboswitch was inserted into the DNA region of the pBAD-TA5 gene construct that encodes the 5′-UTR of the toxin-encoding sequence to yield the same ligand-responsive growth.
# An alternative TPP responsive-riboswitch-regulated TA correction system was engineered with a constitutive promoter driving expression of the riboswitch-yefM mRNA. From a selection of constitutive promoters (SEQ ID Nos.: 47-65, 89) of different strengths, the pBAD promoter of pBAT-TA5 was replaced and the resulting plasmids transformed into E. coli XL1. […]
# [5] = tested on: E. coli control strain e3.22CON; experiment: Toxicity of benzoic acid to non-addicted control strain, growth in microtiter plate; conditions: 2xYT, 5 mM benzoic acid, 37 deg. C.
# Description: A non-addicted control E. coli strain (e3.22CON), also equipped with spectinomycin and kanamycin resistance genes, but wild-type control of folP-glmM expression (Table 13), was constructed in order to test the toxicity of benzoic acid.
# A selected addicted strain (e3.22#4) and the non-addicted control E. coli strain (e3.18CON) were then tested for benzoic acid dependent growth by cultivation in a microtiter plate reader in liquid 2xYT medium supplemented with spectinomycin and kanamycin and w/wo salicylic acid (0 or 5 mM). […] In contrast to the control strain, the growth rate and final biomass yield of the addicted strain e3.18#1 was enhanced by supplementation with benzoic acid with a growth rate higher than otherwise expected for non-addicted strains (FIG. 16).
# [6] = tested on: E. coli strain e3.22#4; experiment: Benzoic acid-dependent growth of addicted strain; conditions: 5 mM benzoic acid
# Source text: as §2, with “benzoic” for “salicylic”, “nahR) (Table 12)” for “nahR_Asn169 (Cebolla et al., 1997))”, “pBABspec.” for “pBANspec (Table 10).”
# Recombineering was performed as described in section 2.3 using well-described methods utilizing the pKD46 plasmid (Datsenko and Wanner, 2000)). Instead of gene disruption, a specific set of knock-out DNA fragments was used to only replace the native essential folP-glmM operon promoter and folP RBS. This set of knockout DNA fragments contained a kanamycin resistance cassette and the pSAL promoter, as illustrated in the cartoon in FIG. 8, as well as a redundant nucleotide (“N”, wherein “N” is any of A, T , G or C) in the RBS for folP-glmM to generate a four-membered library of folP translational strengths. […]
# A selected addicted strain (e3.22#4) and the non-addicted control E. coli strain (e3.18CON) were then tested for benzoic acid dependent growth by cultivation in a microtiter plate reader in liquid 2xYT medium supplemented with spectinomycin and kanamycin and w/wo salicylic acid (0 or 5 mM). […]
# [7] = tested on: E. coli XL1 with folP/glmM driven by pBAD promoter; experiment: L-arabinose-addiction regulated essential gene operon folP/glmM, cell growth (OD600); conditions: 37° C.
# [8] = tested on: E. coli with mevalonate biosensor TA plasmid (pBAM-TA5); conditions: 37 mM mevalonate added; no IPTG
# [9] = tested on: E. coli control strain e3.16CON; experiment: Toxicity of triacetic acid lactone to non-addicted control strain, growth in microtiter plate
# Description: A non-addicted control E. coli strain (e3.16CON), also equipped with spectinomycin and kanamycin resistance genes, but with wildtype control of folP-glmM expression (Table 9), was constructed in order to test the toxicity of triacetic acid lactone.
# The non-addicted control E. coli strain (e3.16CON), and a selected addicted strain (e3.16#5) were then tested and compared for triacetic acid lactone-dependent growth by cultivation in a microtiter plate reader in liquid 2xYT medium supplemented with spectinomycin and kanamycin and a three-step gradient of triacetic acid lactone (0, 2 and 20 mM). […] The observed growth depression was greatest at a concentration of 20 mM triacetic acid lactone.
# [10] = tested on: E. coli strain e3.16#5; experiment: Triacetic acid lactone-dependent growth of addicted strain
# Source text: The native single genomic copy of the essential gene operon folP-glmM in the E. coli XL1 host strain was modified to allow its transcriptional control by the triacetic acid lactone-responsive promoter pBAD. First, a gene encoding a triacetic acid lactone biosensor (AraCtal (Tang et al., 2013)) was introduced into the XL1 host strain on the plasmid pBALspec (Table 8). Then, replacement of the native folP-glmM promoter in this host strain by the pBAD promoter was engineered by means of lambda red-mediated recombineering. Recombineering was performed using well-described methods utilizing the pKD46 plasmid (Datsenko and Wanner, 2000), but instead of gene disruption, a specific set of knock-out DNA fragments (produced by PCR) was used to only replace the native essential folP-glmM operon promoter and folP ribosomal binding site (RBS). This set of knockout DNA fragments each contained a kanamycin resistance cassette and the pBAD promoter, as illustrated in the cartoon in FIG. 8. The nucleotide sequence of the set of gene knockout DNA fragments differed only with respect to the redundant nucleotide (“N”, wherein “N” is any of A, T, G or C) in the RBS sequence (ACTTGC) for folP-glmM, which generated a four-membered library of folP translational strengths.
# For recombineering, as performed in standard pKD46 protocols, the target strain was first transformed with pKD46, and a single colony of this strain was then cultured in a 25 mL 2xYT culture at 30 degrees C. and 250 rpm horizontal shaking. When the culture reached OD600=0.1, the lambda Red system of pKD46 was induced by addition of 0.2 vol % L-arabinose, and then further cultured to grow to OD600=0.4. […]
# The non-addicted control E. coli strain (e3.16CON), and a selected addicted strain (e3.16#5) were then tested and compared for triacetic acid lactone-dependent growth by cultivation in a microtiter plate reader in liquid 2xYT medium supplemented with spectinomycin and kanamycin and a three-step gradient of triacetic acid lactone (0, 2 and 20 mM). […]
compound,measurement,setting,value
O=C(O)c1ccccc1O [salicylic acid],effect on growth of control strain,[1],relative reduction in growth rate and final biomass yield
same,growth rate of addicted strain,[2],not reduced
"CC(C)S[C@@H]1O[C@H](CO)[C@H](O)[C@H](O)[C@H]1O [IPTG, isopropyl β-D-1-thiogalactopyranoside]",IPTG (toxin inducer) concentration at which cell growth was strongly inhibited,"[3]; no L-arabinose, yoeB toxin under pLac",≥ 0.1 mM
"Cc1ncc(C[n+]2csc(CCO[P@](=O)(O)OP(=O)(O)O)c2C)c(N)n1 [TPP, thiamine pyrophosphate]",effect on growth,[4],enhanced growth
O=C(O)c1ccccc1 [benzoic acid],effect on growth of control strain,[5],relative reduction in growth rate and final biomass yield
same,growth rate and final biomass yield of addicted strain,[6],enhanced
O=C[C@H](O)[C@@H](O)[C@@H](O)CO [L-arabinose],L-arabinose concentration sufficient to restore wild-type growth,[3]; co-addition with IPTG at concentrations up to 0.5 mM,0.1%
same,cell growth,"[7]; 2xYT supplemented with 0.0025% L-arabinose, 12-hour time course",completely failed to grow
same,cell growth,[7]; 2xYT supplemented with 0.25% L-arabinose,exponential
CC(O)(CCO)CC(=O)O (stereo not drawn) [mevalonate],effect on cell growth compared to cultures devoid of mevalonate,[8],increase in cell growth
Cc1cc(O)cc(=O)o1 [triacetic acid lactone],effect on growth of control strain,"[9]; 2xYT, 0, 2 and 20 mM triacetic acid lactone, 37 deg. C.",relative reduction in growth rate
same,concentration at which observed growth depression was greatest,"[9]; gradient 0, 2 and 20 mM",20000 µM
same,final cell yield of addicted strain,[10]; 2 mM triacetic acid lactone,increased
same,growth rate of addicted strain,[10]; 2 mM triacetic acid lactone,enhanced
same,final cell yield of addicted strain,[10]; 20 mM triacetic acid lactone,increased
